Where two headings read alike, the source gives them in different places.
Assays:
[1] = molecular target: T1, Human cytomegalovirus DNA polymerase (Human cytomegalovirus, UniProt P08546); experiment: CMV polymerase assay (AlphaLISA); assay type: biochemical; details: polymerase assay of Example 27, HCMV polymerase 0.2 nM
T1 construct: made in house; host or cells: SF21 insect cells (baculovirus vector)
Method: (§1) CMV and VZV Polymerase Assays
(§2) Human cytomegalovirus and varicella zoster virus DNA polymerases were expressed via baculovirus vector in SF21 cells and purified. Heterodimeric nucleic acid substrate used in the herpesvirus polymerase reactions were generated by annealing a 59-mer template to a 17-mer digoxigenin-labeled primer. Polymerase (HCMV final concentration of 0.2 nM; VZV final concentration of 0.4 nM) was combined with an inhibitor compound or DMSO in assay buffer (10 mM HEPES, pH 7.5, 25 mM KCl, 25 mM NaCl, 5 mM MgCl2, 5% glycerol, 0.67 mg/mL bovine serum albumin, and 1 mM tris(2-carboxyethyl)phosphine)), and this mixture was pre-incubated for 30 minutes at room temperature in 384-well microtiter plates. The polymerization reaction was initiated by the addition of template/primer substrate (final concentration: 1.6 nM) and dNTPs (final concentration: 24 nM dCTP, 24 nMdGTP, 16 nM dATP, 16 nM dTTP, and 0.8 nM biotin-dUTP). After a 60 minute incubation period at 37° C., the reactions were terminated using quench buffer (25 mM HEPES pH 7.5, 100 mM NaCl, 0.25% Tween-20, 12 mM EDTA, and 1 mg/mL bovine serum albumin). Incorporation of biotinylated UTP was detected with 2.5-5 μg/mL anti-DIG AlphaLISA acceptor beads and 5-10 μg/mL streptavidin AlphaLISA donor beads (PerkinElmer). Compound effects were normalized to the window defined by the controls (DMSO only and pre-quenched wells) and were fit using a 4-parameter algorithm to report an IC50.

[2] = molecular target: T2, varicella zoster virus DNA polymerase (Varicella-zoster virus, UniProt P09252); experiment: VZV polymerase assay (AlphaLISA); assay type: biochemical; details: polymerase assay of Example 27, VZV polymerase 0.4 nM
T2 construct: made in house; host or cells: SF21 insect cells (baculovirus vector)
Method: as §1, §2

[3] = tested on: HCMV Strain AD169 in MRC-5 cells; experiment: CMV cell assay; assay type: cell-based
Method: MRCS and Vero cells were obtained from ATCC and were maintained at 37° C./5% CO2/90% relative humidity in Minimal Essential Medium with 10% fetal bovine serum, […], 100 units/mL penicillin and 100 ug/mL streptomycin. Assay plates were prepared by dispensing compounds dissolved in DMSO into wells of 384 well collagen-coated plates using an ECHO acoustic dispenser. Each test compound was tested in a 10-point, serial 3-fold dilution. Controls included uninfected cells and infected cells treated only with DMSO. Assays were initiated by mixing selected cells, in suspension, with virus, and dispensing 50 μl/well infected cells to pre-plated compounds. Plates were incubated at 37° C./5% CO2/90% relative humidity for ˜72 hours to permit genomic replication, and infected cells were lysed by the addition of an equal volume of lysis buffer (10 mM Tris-HCl, pH8, 50 mM KCl, 2 mM MgCl2, 0.45% NP-40, 0.45% Tween-20, and 100 μg/mL proteinase K). An aliquot of the lysate was then transferred to a 384-well PCR plate and incubated at 56° C. for 1 hour, and then at 95° C. for 10 minutes. Levels of a viral gene were measured in 10 ul qPCR assays using TaqMan® Gene Expression Master Mix (Applied Biosystems) and an 7900HT Fast Real-Time PCR System with 384-Well Block Module. 7-point, serial 10-fold dilutions of a plasmid standard were run on each plate to generate a standard curve, and genome copies numbers were calculated by plotting experimental Ct onto linear regression of the standard curve. Compound effects on viral genome copy number were normalized to the window defined by the controls. Calculated % effects were fit using a 4-parameter algorithm, and EC50 was reported.
HCMV: Strain AD169 was assayed in MRC-5 cells and was used at 0.05-0.1 pfu/cell. The assays were performed in either growth media or in the same media with 50% fetal bovine serum. Primer-probe set was Thermo Fisher Assay ID=AIFATFK. HSV-1: Strain F was assayed in Vero or MRCS cells and was used at 0.0005-0.004 pfu/cell in growth medium. Primer-probe set was Thermo Fisher Assay ID=AIBJZIB. HSV-2: Strain G was assayed in Vero or MRCS cells and was used at 0.004-0.4 pfu/cell in growth medium. Primer-probe set was Thermo Fisher Assay ID=AICSXOJ.

[4] = tested on: HSV-1, strain F in Vero cells; experiment: HSV CPE assay, HSV-1; assay type: cell-based
Method: (§3) Vero cells were maintained at 37° C./5% CO2/90% relative humidity in Dulbecco's Modified Eagle's Medium with 10% fetal bovine serum, […], 100 units/mL penicillin and 100 ug/mL streptomycin. For this assay, Vero cells (maintained at 37° C./5% CO2/90% relative humidity in Dulbecco's Modified Eagle's Medium with 10% fetal bovine serum, […], 100 units/mL penicillin and 100 μg/mL streptomycin) were seeded in 96-well microtiter plates and incubated for about 15 hours. They were then infected with HSV-1, strain F, or with HSV-2, strain G, at a multiplicity of infection known to result in 85-95% loss of cell viability during the assays, in the same media with 2% fetal bovine serum. Test compounds were dissolved in DMSO, and 6 point serial 10-fold dilutions in DMSO were prepared. Test compounds were added to infected cells, and the plates were incubated at 37° C./5% CO2/90% relative humidity for 5 days. Each plate contains cell control wells (cells only), virus control wells (cells plus virus), drug colorimetric control wells (drug only), background control wells (media only) and experimental wells (drug plus cells plus virus). Cytoprotection was assessed by the addition of Celltiter®96 Reagent (Promega, Madison, Wis.), according to manufacturer's recommendations. % cytopathic effect (CPE) reduction was calculated and IC50 (concentration inhibition virus replication by 50%) was reported.

[5] = tested on: HSV-2, strain G in Vero cells; experiment: HSV CPE assay, HSV-2; assay type: cell-based
Method: as §3

[6] = Human betaherpesvirus 5, AD169, MRC5, footnote b: assay described in Example 25, read-out: CMV Cell^b (EC50)
[7] = Human alphaherpesvirus 1, 120 h, unstarred values: CPE assay of Example 25, Vero cells, 5 days, read-out: HSV1 Cell^b (EC50)
[8] = Human alphaherpesvirus 2, 120 h, unstarred values: CPE assay of Example 25, Vero cells, 5 days, read-out: HSV2 Cell^b CPE(EC50)
[9] = Human betaherpesvirus 5, AD169, MRC5, read-out: CMV Cell^b (EC50), footnote b: assay described in Example 25
[10] = Human alphaherpesvirus 1, Vero, 120 h, read-out: HSV1 Cell^b (EC50), unstarred values: CPE assay of Example 25, Vero cells, 5 days
[11] = Human alphaherpesvirus 2, Vero, 120 h, read-out: HSV2 Cell^b CPE(EC50), unstarred values: CPE assay of Example 25, Vero cells, 5 days
[12] = read-out: HSV1 Cell^b (EC50), unstarred values: CPE assay of Example 25, Vero cells, 5 days

T2 sequence (P09252 whole entry): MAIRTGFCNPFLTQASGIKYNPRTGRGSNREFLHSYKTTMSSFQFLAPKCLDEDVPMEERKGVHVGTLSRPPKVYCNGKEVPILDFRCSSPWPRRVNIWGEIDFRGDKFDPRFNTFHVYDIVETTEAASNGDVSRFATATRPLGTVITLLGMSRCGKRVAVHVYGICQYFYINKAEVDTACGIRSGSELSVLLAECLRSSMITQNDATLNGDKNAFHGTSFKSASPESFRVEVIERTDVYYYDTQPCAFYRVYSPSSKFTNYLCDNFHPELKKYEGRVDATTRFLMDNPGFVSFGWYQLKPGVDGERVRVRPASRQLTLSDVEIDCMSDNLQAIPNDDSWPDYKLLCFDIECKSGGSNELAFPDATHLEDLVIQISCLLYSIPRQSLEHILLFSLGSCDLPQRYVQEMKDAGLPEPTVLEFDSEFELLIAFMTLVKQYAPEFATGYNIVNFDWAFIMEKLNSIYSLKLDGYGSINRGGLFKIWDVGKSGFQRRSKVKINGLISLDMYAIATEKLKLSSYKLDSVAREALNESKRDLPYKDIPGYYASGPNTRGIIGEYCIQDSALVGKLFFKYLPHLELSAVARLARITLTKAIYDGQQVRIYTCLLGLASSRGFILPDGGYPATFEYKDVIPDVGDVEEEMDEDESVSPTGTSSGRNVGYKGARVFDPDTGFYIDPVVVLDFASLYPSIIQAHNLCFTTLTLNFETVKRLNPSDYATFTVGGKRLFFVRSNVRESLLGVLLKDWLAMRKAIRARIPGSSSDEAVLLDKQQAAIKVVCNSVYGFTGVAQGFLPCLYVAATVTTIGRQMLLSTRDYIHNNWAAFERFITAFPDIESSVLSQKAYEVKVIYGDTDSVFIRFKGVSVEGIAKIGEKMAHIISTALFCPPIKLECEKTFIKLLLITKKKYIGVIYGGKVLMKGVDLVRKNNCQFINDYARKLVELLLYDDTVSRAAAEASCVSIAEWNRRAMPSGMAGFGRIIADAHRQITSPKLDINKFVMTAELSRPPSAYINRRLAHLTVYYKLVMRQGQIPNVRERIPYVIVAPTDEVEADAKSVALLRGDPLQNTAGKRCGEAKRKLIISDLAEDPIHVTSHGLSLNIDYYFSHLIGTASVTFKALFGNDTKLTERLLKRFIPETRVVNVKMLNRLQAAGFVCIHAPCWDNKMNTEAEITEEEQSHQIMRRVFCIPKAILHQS
T1 sequence (P08546 whole entry): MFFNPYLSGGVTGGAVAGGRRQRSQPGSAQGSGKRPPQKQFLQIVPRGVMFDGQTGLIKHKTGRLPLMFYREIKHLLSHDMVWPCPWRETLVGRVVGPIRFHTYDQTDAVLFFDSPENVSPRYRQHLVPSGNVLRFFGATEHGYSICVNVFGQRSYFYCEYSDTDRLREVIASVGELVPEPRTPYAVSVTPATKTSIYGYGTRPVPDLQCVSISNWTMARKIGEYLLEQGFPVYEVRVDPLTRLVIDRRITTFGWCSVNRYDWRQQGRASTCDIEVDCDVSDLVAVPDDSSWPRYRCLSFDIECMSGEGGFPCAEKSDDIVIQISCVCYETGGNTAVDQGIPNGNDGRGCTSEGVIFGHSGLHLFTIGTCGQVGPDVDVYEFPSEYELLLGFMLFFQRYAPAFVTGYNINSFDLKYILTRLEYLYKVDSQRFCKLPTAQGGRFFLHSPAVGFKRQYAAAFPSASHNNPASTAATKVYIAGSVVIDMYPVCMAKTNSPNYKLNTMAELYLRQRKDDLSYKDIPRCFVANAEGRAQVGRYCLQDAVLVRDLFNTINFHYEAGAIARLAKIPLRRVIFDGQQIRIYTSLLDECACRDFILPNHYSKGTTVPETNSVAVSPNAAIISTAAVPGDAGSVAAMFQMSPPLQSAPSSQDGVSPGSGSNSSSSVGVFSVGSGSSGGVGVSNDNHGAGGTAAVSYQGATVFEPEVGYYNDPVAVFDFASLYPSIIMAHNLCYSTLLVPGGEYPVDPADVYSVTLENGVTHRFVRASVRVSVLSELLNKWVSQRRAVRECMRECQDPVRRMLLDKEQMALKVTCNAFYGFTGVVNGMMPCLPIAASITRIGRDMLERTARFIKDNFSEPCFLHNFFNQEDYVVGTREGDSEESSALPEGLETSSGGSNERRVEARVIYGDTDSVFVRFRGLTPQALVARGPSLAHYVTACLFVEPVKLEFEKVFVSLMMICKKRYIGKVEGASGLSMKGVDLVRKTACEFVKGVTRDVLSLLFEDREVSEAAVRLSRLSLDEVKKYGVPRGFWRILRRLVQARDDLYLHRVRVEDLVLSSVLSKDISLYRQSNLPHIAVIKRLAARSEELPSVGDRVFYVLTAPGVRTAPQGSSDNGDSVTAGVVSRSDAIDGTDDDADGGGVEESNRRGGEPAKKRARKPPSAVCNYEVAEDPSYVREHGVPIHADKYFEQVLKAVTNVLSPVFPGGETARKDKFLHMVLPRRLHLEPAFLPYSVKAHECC

SMILES	IC50 ([1]; read-out: CMV^a (IC50)) [nM]	IC50 ([2]; read-out: VZV^a (IC50)) [nM]	EC50 [3, 6] [nM]	further results
Cn1nc(C(=O)NCc2ccc(Cl)cc2)c2c3c(ccc21)C(N1CCOCC1)CC3 (single isomer, unassigned) [Compound 16]	260	38	970	EC50 [4, 7]: 1500 nM; EC50 [5, 8]: 1600 nM
Cc1c(N2CCn3nncc3C2)ccc2c(C(=O)NCc3ccc(C#N)cc3)nn(CCC#N)c12 [Compound 1]				IC50 ([1]; CMV^a (IC50)): 53 nM; IC50 ([2]; VZV^a (IC50)): 13 nM; EC50 [3, 9]: 120 nM; EC50 [4, 10]: 1600 nM; EC50 [5, 11]: 2500 nM
Cc1c(N2CCn3nncc3C2)ccc2c(C(=O)NCc3ccc(Cl)cc3)nn(C3CCNC3)c12 (centres unmarked) [Compound 4]				IC50 ([1]; CMV^a (IC50)): 37 nM; IC50 ([2]; VZV^a (IC50)): 16 nM; EC50 [3, 9]: 85 nM; EC50 [4, 12]: 3100 nM; EC50 [5, 11]: 2100 nM
Cc1c(N2CCn3nncc3C2)ccc2c(C(=O)NCc3ccc(Cl)cc3)nn(CCOCCO)c12 [Compound 5]				IC50 ([1]; CMV^a (IC50)): 33 nM; IC50 ([2]; VZV^a (IC50)): 12 nM; EC50 [3, 9]: 97 nM; EC50 [4, 10]: > 40000 nM; EC50 [5, 11]: 610 nM
Cc1c(N2CCn3nncc3C2)ccc2c(C(=O)NCc3ccc(Cl)cc3)nn(C3CCNC3)c12 (centres unmarked) [Compound 6]				IC50 ([1]; CMV^a (IC50)): 45 nM; IC50 ([2]; VZV^a (IC50)): 19 nM; EC50 ([3]; read-out: CMV Cell^b (EC50), footnote b: assay described in Example 25): 110 nM; EC50 [4, 12]: > 40000 nM; EC50 ([5]; read-out: HSV2 Cell^b CPE(EC50), unstarred values: CPE assay of Example 25, Vero cells, 5 days): 3700 nM
O=C(NCc1ccc(Cl)cc1)c1n[nH]c2c(Cl)c(N3CCn4nncc4C3)ccc12 [Compound 7]	22	5.1	120	EC50 [4, 7]: 120 nM; EC50 [5, 8]: 200 nM
Cc1cc(CN2CCCS(=O)(=O)CC2)cc2c(C(=O)NCc3ccc(C#N)cc3)nn(CCC#N)c12 [Compound 8]				IC50 ([1]; CMV^a (IC50)): 103 nM; IC50 ([2]; VZV^a (IC50)): 62 nM; EC50 [3, 9]: 150 nM; EC50 [4, 10]: 6400 nM; EC50 [5, 11]: 22000 nM
Cn1nncc1COc1ccc2c(C(=O)NCc3ccc(Cl)cc3)nn(C)c2c1Cl [Compound 10]	41	12	460	EC50 [4, 7]: 250 nM; EC50 [5, 8]: 590 nM
N#Cc1c(N2CCn3nncc3C2)ccc2c(C(=O)NCc3ccc(Cl)cc3)n[nH]c12 [Compound 11]	23	3.7	93	EC50 [4, 7]: 480 nM; EC50 [5, 8]: 700 nM
Cc1nnn(C)c1COc1ccc2c(C(=O)NCc3ccc(Cl)cc3)nn(C[C@@H](C)O)c2c1F [Compound 12]				IC50 ([1]; CMV^a (IC50)): 7.1 nM; IC50 ([2]; VZV^a (IC50)): 1.6 nM; EC50 [3, 9]: 300 nM
Cc1c(NCc2cnnn2C)ccc2c(C(=O)NCc3ccc(Cl)cc3)n[nH]c12 [Compound 13]	17	5	320	
Cn1nc(C(=O)NCc2ccc(Cl)cc2)c2ccc(N3CCn4nncc4C3)c(Br)c21 [Compound 15]	25	14	930	EC50 [4, 7]: 850 nM; EC50 [5, 8]: 930 nM
Cc1c(CN2CCCS(=O)(=O)CC2)ccc2c1c(C(=O)NCc1ccc(Cl)cc1)nn2C [Compound 18]	120	160	2900	EC50 [4, 7]: 6300 nM; EC50 [5, 8]: 6100 nM
Cc1c(CN2CCOCC2)cc2c(C(=O)NCc3ccc(Cl)cc3)nn(C)c2c1C [Compound 22]	580		4300	
Cn1nc(C(=O)NCc2ccc([N+](=O)[O-])cc2)c2cc(CN3CCOCC3)ccc21 [Compound 23]	990	180	12000	
Cn1nc(C(=O)NCc2ccc(Br)cc2)c2cc(CN3CCOCC3)ccc21 [Compound 24]	920	220	> 9900	
Cn1nc(C(=O)NCc2ccc(F)cc2)c2cc(CN3CCOCC3)ccc21 [Compound 26]	3300	740		
Cn1nc(C(=O)NCc2ccc(Cl)cc2)c2cnc(N3CCn4nncc4C3)cc21 [Compound 28]	810	250	7500	
Cn1nc(C(=O)NCc2ccc(Cl)cc2)c2cc(CN3CCOCC3)ncc21 [Compound 29]	2400	1600		
Cn1nc(C(=O)NCc2ccc(Cl)cc2)c2ccc(N3CCn4nncc4C3)nc21 [Compound 30]	1600	3000		
Cn1cc(C(=O)NCc2ccc(Cl)cc2)c2ccc(N3CCn4nncc4C3)cc21 [Compound 31]	190	120		
